In BindingDB's records for doi:10.1016/j.ejmech.2018.09.061 (Anhui University of Chinese Medicine, 2018):

Experiment: Inhibition of MDR1 in human KB/VCR cells assessed as potentiation of vincristine-induced cytotoxicity by measuring vincristine IC50 at 25 uM after 72 hrs by Western blot analysis (Rvb = 4.21 +/- 0.33 uM)

Compound: CC(C)C(=O)OC(C)(C)[C@@H]1Cc2c(ccc3ccc(=O)oc23)O1
- IC50: 560 nM
